# Patent publication US20110015162A1, “15,16-Methylene-17-hydroxy-19-nor-21-carboxylic acid-steroid Y-lactone derivative, use thereof and medicinal products containing the derivative” (Bayer Schering Pharma Aktiengesellschaft, priority 2007, published 2011)
# Like-named read-outs stand apart in the source and are kept apart here.
# What was measured:
# [1] = target: T1, mineralocorticoid receptor (Homo sapiens, UniProt P08235); test: Antimineralocorticoid action by transactivation test (MDCK reporter cells); type: cell-based; set-up: expressed in transfected cells; host or cells: MDCK cells; conditions: for Emax: read-out: Mineralocorticoid receptor Antagonism efficacy;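 as to Emax: percent inhibition of the aldosterone-stimulated reporter signal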;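 as to Mineralocorticoid receptor Antagonism efficacy: percent inhibition of the aldosterone-stimulated reporter signal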
# T1 sequence (P08235 1-984): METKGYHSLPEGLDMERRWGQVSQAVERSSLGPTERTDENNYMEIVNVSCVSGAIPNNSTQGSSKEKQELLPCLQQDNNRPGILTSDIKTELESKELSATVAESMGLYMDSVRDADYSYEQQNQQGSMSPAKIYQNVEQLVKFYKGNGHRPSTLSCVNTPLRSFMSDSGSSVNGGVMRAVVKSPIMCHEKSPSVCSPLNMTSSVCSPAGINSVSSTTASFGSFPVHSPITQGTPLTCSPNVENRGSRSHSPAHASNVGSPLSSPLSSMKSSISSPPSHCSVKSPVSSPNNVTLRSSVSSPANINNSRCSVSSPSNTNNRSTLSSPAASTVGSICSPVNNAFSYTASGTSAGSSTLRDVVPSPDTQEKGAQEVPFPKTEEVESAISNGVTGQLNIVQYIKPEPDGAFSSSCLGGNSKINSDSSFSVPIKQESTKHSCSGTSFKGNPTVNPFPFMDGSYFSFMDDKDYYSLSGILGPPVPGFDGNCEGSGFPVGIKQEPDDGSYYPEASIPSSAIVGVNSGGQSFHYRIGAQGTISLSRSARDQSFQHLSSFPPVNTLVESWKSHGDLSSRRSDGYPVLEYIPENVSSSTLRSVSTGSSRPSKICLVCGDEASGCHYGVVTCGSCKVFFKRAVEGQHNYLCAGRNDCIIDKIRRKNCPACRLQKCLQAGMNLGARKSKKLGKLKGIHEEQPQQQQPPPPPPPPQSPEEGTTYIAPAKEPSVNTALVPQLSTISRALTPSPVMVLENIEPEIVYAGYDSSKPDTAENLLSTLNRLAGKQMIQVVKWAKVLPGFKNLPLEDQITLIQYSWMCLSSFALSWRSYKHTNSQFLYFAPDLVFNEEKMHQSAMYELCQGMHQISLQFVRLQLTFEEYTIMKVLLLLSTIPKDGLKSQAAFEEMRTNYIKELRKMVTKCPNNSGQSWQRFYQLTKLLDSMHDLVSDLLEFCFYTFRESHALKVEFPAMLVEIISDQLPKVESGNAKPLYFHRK
# Experimental: (§1) The test compounds were added eight hours later, and the cells were incubated with the compounds for 16 hours. The tests were carried out in triplicate. At the end of incubation the medium containing the effector was removed and replaced with lysis buffer. After luciferase assay substrate (Promega, #E1501) had been added, the 96-well plates were then put in a microplate luminometer (Pherastar, BMG Labtech), and the luminescence was measured. The IC50 values were evaluated using software for calculating dose-effect relations.
# 5. Determination of Antimineralocorticoid Action by Means of Transactivation Tests:
# The antimineralocorticoid activity of the test substances was determined as for the transactivation tests described above.
# The following modifications were undertaken: In this case reporter cell lines were used (MDCK cells) that express the human mineralocorticoid receptor, and transiently contain a reporter construct that contains luciferase under the control of a steroid hormone-responsive promoter.
# [2] = target: T2, androgen receptor (Homo sapiens, UniProt P10275); test: Androgenic/antiandrogenic action by transactivation test (PC3 reporter cells); type: cell-based; set-up: expressed in transfected cells; host or cells: PC3 cells
# T2 sequence (P10275 1-920): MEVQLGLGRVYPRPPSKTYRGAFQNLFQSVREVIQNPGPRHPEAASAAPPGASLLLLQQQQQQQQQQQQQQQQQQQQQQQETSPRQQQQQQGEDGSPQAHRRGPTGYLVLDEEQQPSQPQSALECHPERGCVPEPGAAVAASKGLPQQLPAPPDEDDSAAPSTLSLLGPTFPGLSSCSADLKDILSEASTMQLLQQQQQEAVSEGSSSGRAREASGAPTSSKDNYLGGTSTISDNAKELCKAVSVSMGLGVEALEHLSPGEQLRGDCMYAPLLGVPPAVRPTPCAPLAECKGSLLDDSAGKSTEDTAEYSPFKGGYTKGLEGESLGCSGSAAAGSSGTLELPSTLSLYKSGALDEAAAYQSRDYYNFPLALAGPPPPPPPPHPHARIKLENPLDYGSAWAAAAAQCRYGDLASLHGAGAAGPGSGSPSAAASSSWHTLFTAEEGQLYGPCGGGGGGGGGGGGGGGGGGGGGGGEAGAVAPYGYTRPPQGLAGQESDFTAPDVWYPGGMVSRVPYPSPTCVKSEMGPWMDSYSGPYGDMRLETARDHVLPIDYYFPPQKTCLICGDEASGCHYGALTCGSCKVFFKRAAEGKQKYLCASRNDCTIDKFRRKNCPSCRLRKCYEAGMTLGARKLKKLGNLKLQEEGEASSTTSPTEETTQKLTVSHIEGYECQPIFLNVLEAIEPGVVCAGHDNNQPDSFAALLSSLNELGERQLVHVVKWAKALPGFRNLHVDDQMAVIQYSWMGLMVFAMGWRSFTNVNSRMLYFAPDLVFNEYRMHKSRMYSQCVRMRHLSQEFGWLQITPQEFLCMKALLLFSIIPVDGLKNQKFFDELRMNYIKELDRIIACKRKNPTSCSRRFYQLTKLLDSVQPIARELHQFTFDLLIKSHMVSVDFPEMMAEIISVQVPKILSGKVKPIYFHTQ
# Experimental: as §1
# 6. Determination of Androgenic/Antiandrogenic Action by Means of Transactivation Tests:
# The androgenic/antiandrogenic action of the test substances was determined as for the transactivation tests described above.
# The following modifications were made: In this case reporter cell lines were used (PC3 cells) that express the androgen receptor, and a reporter construct that contains luciferase under the control of a steroid hormone-responsive promoter.
# For determination of the antiandrogenic efficacy, 0.05 nM R1881 was added to the cells, in order to achieve almost maximum stimulation of the reporter gene.
# [3] = target: T2, androgen receptor; test: Androgen receptor binding test; set-up: expressed in transfected cells; conditions: reference substance 3H-testosterone
# [4] = MDCK cells, with 1 nM aldosterone, read-out: Mineralocorticoid receptor Antagonism IC50
# [5] = MDCK cells, with 1 nM aldosterone
# [6] = PC-3, read-out: Androgen receptor Agonism efficacy
# [7] = PC-3, read-out: Androgen receptor Antagonism efficacy
Compound,"IC50 [1, 4] [nM]","Emax [1, 5] [%]",EC50 [2] [nM],IC50 [2] [nM],"Emax [2, 6] [%]","Emax [2, 7] [%]",Androgen receptor Competition factor [3],IC50 [1] [nM],Emax ([1]; MDCK) [%]
"C[C@]12CC[C@H]3[C@@H](C=CC4=CC(=O)CC[C@@H]43)[C@@H]1[C@H]1C[C@H]1[C@@]21C=CC(=O)O1 [Example 13, 17β-Hydroxy-15α,16α-methylene-19-nor-17α-pregna-4,6,20(Z)-trien-3-one-21-carboxylic acid γ-lactone]",12,116,120,100,14.4,47.4,163.2,,
"C[C@@H]1CC2=CC(=O)CC[C@@H]2[C@H]2CC[C@@]3(C)[C@@H]([C@H]4C[C@H]4[C@@]34C=CC(=O)O4)[C@@H]21 [Example 14A, 17β-Hydroxy-7α-methyl-15α,16α-methylene-19-nor-17α-pregna-4,20(Z)-dien-3-one-21-carboxylic acid γ-lactone]",,,13,1.5,41.8,21,2.3,3,83
"CC[C@@H]1CC2=CC(=O)CC[C@@H]2[C@H]2CC[C@@]3(C)[C@@H]([C@H]4C[C@H]4[C@@]34C=CC(=O)O4)[C@H]12 [Example 15A, 17β-Hydroxy-7α-ethyl-15α,16α-methylene-19-nor-17α-pregna-4,20(Z)-dien-3-one-21-carboxylic acid γ-lactone]",,,11,,49.4,5,2.2,12,112
"C=C[C@@H]1CC2=CC(=O)CC[C@@H]2[C@H]2CC[C@@]3(C)[C@@H]([C@H]4C[C@H]4[C@@]34C=CC(=O)O4)[C@@H]21 [Example 16A, 17β-Hydroxy-7α-vinyl-15α,16α-methylene-19-nor-17α-pregna-4;20(Z)-dien-3-one-21-carboxylic acid γ-lactone]",,,12,,62.6,5,2.6,95,103
"C[C@]12CC[C@H]3[C@H]([C@@H]1[C@H]1C[C@H]1[C@@]21C=CC(=O)O1)[C@H](C1CC1)CC1=CC(=O)CC[C@@H]13 [Example 17A, 17β-Hydroxy-7α-cyclopropyl-15α,16α-methylene-19-nor-17α-pregna-4,20(Z)-dien-3-one-21-carboxylic acid γ-lactone]",,,23,11,40.8,33.7,5.2,89,115
"C[C@]12CC[C@H]3[C@@H](CCC4=C(Cl)C(=O)CC[C@@H]43)[C@@H]1[C@H]1C[C@H]1[C@@]21C=CC(=O)O1 [Example 18, 4-Chloro-17β-hydroxy-15α,16α-methylene-19-nor-17α-pregna-4,20(Z)-dien-3-one-21-carboxylic acid γ-lactone]",,,12,,71.5,5,7.3,830,37.3
"C[C@]12CC[C@H]3[C@@H](CCC4=CC(=O)CC[C@@H]43)[C@@H]1[C@@H]1C[C@@H]1[C@@]21C=CC(=O)O1 [Example 19, 17β-Hydroxy-15β,16β-methylene-19-nor-17α-pregna-4,20(Z)-dien-3-one-21-carboxylic acid γ-lactone]",,,5.3,,87.5,5,6.4,62,92.8
"C[C@]12CC[C@H]3[C@@H](C[C@@H](CO)C4=CC(=O)CC[C@@H]43)[C@@H]1[C@@H]1C[C@@H]1[C@@]21C=CC(=O)O1 [Example 21, 17β-Hydroxy-6β-hydroxymethylene-15β,16β-methylene-19-nor-17α-pregna-4,20(Z)-dien-3-one-21-carboxylic acid γ-lactone]",160,68,,500,5,15.7,1000.0,,
"C[C@]12CC[C@H]3[C@@H](CC4(CC4)C4=CC(=O)CC[C@@H]43)[C@@H]1[C@@H]1C[C@@H]1[C@@]21C=CC(=O)O1 [Example 22, 6,6-(1,2-Ethanediyl)-17β-hydroxy-15β,16β-methylene-19-nor-17α-pregna-4,20(Z)dien-3-one-21-carboxylic acid γ-lactone]",,,1.7,,98.6,5,2.0,49,91.2
"C[C@@H]1CC2=CC(=O)CC[C@@H]2[C@H]2CC[C@@]3(C)[C@@H]([C@@H]4C[C@@H]4[C@@]34C=CC(=O)O4)[C@@H]21 [Example 23A, 17β-Hydroxy-7α-methyl-15β,16β-methylene-19-nor-17α-pregna-4,20(2)-dien-3-one-21-carboxylic acid γ-lactone]",,,19,,63.6,5,4.2,290,105
"CC[C@@H]1CC2=CC(=O)CC[C@@H]2[C@H]2CC[C@@]3(C)[C@@H]([C@@H]4C[C@@H]4[C@@]34C=CC(=O)O4)[C@H]12 [Example 24A, 7α-Ethyl-17β-hydroxy-15β,16β-methylene-19-nor-17α-pregna-4,20(Z)-dien-3-one-21-carboxylic acid γ-lactone]",,,52,11,36.8,22.5,8.1,160,81.1
